# Where a name gives a salt, the structure may show the parent alone.
# Tested on: bacterial strains that express KPC β-lactamases
# Experiment: Synergy MIC / standard BLI potentiation MIC assay against strains expressing KPC β-lactamases
# Type: cell-based
# Details: in the presence of a β-lactam; comparator Avibactam
# Experimental: The experimental protocol was performed according to Clinical and Laboratory Standards Institute (CLSI) guidelines with modifications as described below (CLSI guidelines can be derived from the CLSI document M07-A9 published in January 2012: “Methods for Dilution Antimicrobial Susceptibility Tests for Bacteria That Grow Aerobically; Approved Standard-Ninth Edition”).
# To prepare for MIC testing, frozen glycerol stocks of clinical isolates (Klebsiella pneumoniae, Eschericia coli, Enterobacter spp, Citrobacter spp, or Pseudomonas aeruginosa) were used to streak for isolated colonies on rich, non-selective, tryptic soy agar containing 5% sheep's blood (TSAB). Frozen glycerol stocks of laboratory engineered, isogenic E. coli strains, which contain cloned β-lactamase expressing plasmids were used to streak for isolated colonies on rich, selective LB agar supplemented with 25 μg/mL tetracycline to maintain the plasmid. All strains were incubated at 37° C. for 18-24 hrs.
# On the day of testing, primary cultures were started by scraping off 5-10 colonies from the TSAB plates containing clinical strains or the tetracycline supplemented LB plates containing engineered strains. The clinical strain material was suspended in ˜5 mL of cation adjusted Mueller Hinton Broth (CAMHB) in 14 mL culture tubes. The engineered strain material was suspended in CAMHB (supplemented with 25 μg/mL tetracycline) in 14 mL culture tubes. All strains were incubated at 37° C. with aeration (200 rpm) for ˜2 hrs until the optical density at 600 nm (OD600) was >0.1.
# The two compound components of the assay were each diluted in CAMHB and added to the 96-well broth microdilution assay plates. 50 μL of the β-lactam was added to each well of the assay plate in 2-fold dilutions with final concentrations ranging from 128 to 0.13 μg/mL. 25 μL, of the BLI compound was added to all wells in the broth microdilution plates at a final concentration of 4 μg/mL. Inoculum cultures were prepared by standardizing the primary cultures to OD600=0.1 and then adding 20 μL of the adjusted primary culture per 1 mL CAMHB for clinical strains or CAMHB (supplemented with tetracycline at 100 μg/mL) for engineered strains, so that the final inoculum density was ˜10^5 colony forming units per milliliter. Diluted inoculum cultures were used to inoculate 25 μl, per well in 96-well broth microdilution assay plates. The final volume of each well was 100 μL and contained a β-lactam at different concentrations, a BLIcompound at 4 μg/mL concentration, the bacterial culture at an OD600 of approximately 0.001 and when necessary tetracycline at 25 μg/mL.
# Plates were incubated for 18-20 hours at 37° C. with aeration (200 rpm). Following incubation, growth was confirmed visually placing plates over a viewing apparatus (stand with a mirror underneath) and then OD600 was measured using a SpectraMax 340PC384 plate reader (Molecular Devices, Sunnyvale, Calif.). Growth was defined as turbidity that could be detected with the naked eye or achieving minimum OD600 of 0.1. MIC values were defined as the lowest concentration producing no visible turbidity.
# The synergy MIC (sMIC) assay determines the concentration of the BLI required to potentiate the activity of a fixed concentration of a β-lactam antibiotic against β-lactamase producing bacterial strains. The experimental protocol was performed according to Clinical and Laboratory Standards Institute (CLSI) guidelines with modifications as described below (CLSI guidelines can be derived from the CLSI document M07-A9 published in January 2012: “Methods for Dilution Antimicrobial Susceptibility Tests for Bacteria That Grow Aerobically; Approved Standard-Ninth Edition”). […]
row,SMILES,more active than Avibactam for at least one bacterial strain that expresses KPC β-lactamase and/or better spectrum of activity against KPC strains
1,"N=C(N)NC[C@H](O)c1nnc([C@@H]2CC[C@@H]3CN2C(=O)N3OS(=O)(=O)O)o1 [Compound 732, (2S,5R)-2-(5-((S)-2-guanidino-1-hydroxyethyl)-1,3,4-oxadiazol-2-yl)-7-oxo-1,6-diazabicyclo[3.2.1]octan-6-yl hydrogen sulfate]",more active than Avibactam
2,"N[C@@H]1CC[C@H](c2nnc([C@@H]3CC[C@@H]4CN3C(=O)N4OS(=O)(=O)O)o2)C1 [Compound 729, (2S,5R)-2-(5-((1S,3R)-3-aminocyclopentyl)-1,3,4-oxadiazol-2-yl)-7-oxo-1,6-diazabicyclo[3.2.1]octan-6-yl hydrogen sulfate]",more active than Avibactam
3,"O=C1N2C[C@@H](CC[C@H]2c2nnc(C3CCNCC3)o2)N1OS(=O)(=O)O [Compound 711, (2S,5R)-7-oxo-2-(5-(piperidin-4-yl)-1,3,4-oxadiazol-2-yl)-1,6-diazabicyclo[3.2.1]octan-6-yl hydrogen sulfate]",more active than Avibactam
4,"NC1CCN(Cc2nnc([C@@H]3CC[C@@H]4CN3C(=O)N4OS(=O)(=O)O)o2)CC1 [Compound 774, (2S,5R)-2-(5-((4-aminopiperidin-1-yl)methyl)-1,3,4-oxadiazol-2-yl)-7-oxo-1,6-diazabicyclo[3.2.1]octan-6-yl hydrogen sulfate]",more active than Avibactam
5,"NC1CCN(CCc2nnc([C@@H]3CC[C@@H]4CN3C(=O)N4OS(=O)(=O)O)o2)CC1 [Compound 775, (2S,5R)-2-(5-(2-(4-aminopiperidin-1-yl)ethyl)-1,3,4-oxadiazol-2-yl)-7-oxo-1,6-diazabicyclo[3.2.1]octan-6-yl hydrogen sulfate]",more active than Avibactam
6,"N=C(N)N1CC(NCc2nnc([C@@H]3CC[C@@H]4CN3C(=O)N4OS(=O)(=O)O)o2)C1 [Compound 746, (2S,5R)-2-(5-(((1-carbamimidoylazetidin-3-yl)amino)methyl)-1,3,4-oxadiazol-2-yl)-7-oxo-1,6-diazabicyclo[3.2.1]octan-6-yl hydrogen sulfate]",more active than Avibactam
7,"N[C@H]1CN[C@H](c2nnc([C@@H]3CC[C@@H]4CN3C(=O)N4OS(=O)(=O)O)o2)C1 [Compound 762, (2S,5R)-2-(5-((2S,4R)-4-aminopyrrolidin-2-yl)-1,3,4-oxadiazol-2-yl)-7-oxo-1,6-diazabicyclo[3.2.1]octan-6-yl hydrogen sulfate]",more active than Avibactam
8,"CNCCCc1nnc([C@@H]2CC[C@@H]3CN2C(=O)N3OS(=O)(=O)O)o1 [Compound 734, 2S,5R)-2-(5-(3-(methylamino)propyl)-1,3,4-oxadiazol-2-yl)-7-oxo-1,6-diazabicyclo[3.2.1]octan-6-yl hydrogen sulfate]",more active than Avibactam
9,"O=C1N2C[C@@H](CC[C@H]2c2nnc(CCCNC3CCNCC3)o2)N1OS(=O)(=O)O [Compound 771, (2S,5R)-7-oxo-2-(5-(3-(piperidin-4-ylamino)propyl)-1,3,4-oxadiazol-2-yl)-1,6-diazabicyclo[3.2.1]octan-6-yl hydrogen sulfate]",more active than Avibactam
10,"N[C@H]1C[C@@H](NCc2nnc([C@@H]3CC[C@@H]4CN3C(=O)N4OS(=O)(=O)O)o2)C1 [Compound 756, (2S,5R)-2-(5-((((1s,3R)-3-aminocyclobutyl)amino)methyl)-1,3,4-oxadiazol-2-yl)-7-oxo-1,6-diazabicyclo[3.2.1]octan-6-yl hydrogen sulfate]",more active than Avibactam
11,"N=C(N)NC1(Cc2nnc([C@@H]3CC[C@@H]4CN3C(=O)N4OS(=O)(=O)O)o2)CC1 [Compound 739, (2S,5R)-2-(5-((1-guanidinocyclopropyl)methyl)-1,3,4-oxadiazol-2-yl)-7-oxo-1,6-diazabicyclo[3.2.1]octan-6-yl hydrogen sulfate]",more active than Avibactam
12,"C[n+]1ccc(-c2nnc([C@@H]3CC[C@@H]4CN3C(=O)N4OS(=O)(=O)[O-])o2)cc1 [Compound 782, (2S,5R)-2-(5-(1-methylpyridin-1-ium-4-yl)-1,3,4-oxadiazol-2-yl)-7-oxo-1,6-diazabicyclo[3.2.1]octan-6-yl sulfate]",more active than Avibactam
13,"CNCCc1nnc([C@@H]2CC[C@@H]3CN2C(=O)N3OS(=O)(=O)O)o1 [Compound 722, (2S,5R)-2-(5-(2-(methylamino)ethyl)-1,3,4-oxadiazol-2-yl)-7-oxo-1,6-diazabicyclo[3.2.1]octan-6-yl hydrogen sulfate]",more active than Avibactam
14,"NCCCc1nnc([C@@H]2CC[C@@H]3CN2C(=O)N3OS(=O)(=O)O)o1 [Compound 720, (2S,5R)-2-(5-(3-aminopropyl)-1,3,4-oxadiazol-2-yl)-7-oxo-1,6-diazabicyclo[3.2.1]octan-6-yl hydrogen sulfate]",more active than Avibactam
15,"O=C1N2C[C@@H](CC[C@H]2c2nnc(CCCC3CNC3)o2)N1OS(=O)(=O)O [Compound 743, (2S,5R)-2-(5-(3-(azetidin-3-yl)propyl)-1,3,4-oxadiazol-2-yl)-7-oxo-1,6-diazabicyclo[3.2.1]octan-6-yl hydrogen sulfate]",more active than Avibactam
16,"O=C1N2C[C@@H](CC[C@H]2c2nnc(C3CC4(CNC4)C3)o2)N1OS(=O)(=O)O [Compound 750, (2S,5R)-2-(5-(2-azaspiro[3.3]heptan-6-yl)-1,3,4-oxadiazol-2-yl)-7-oxo-1,6-diazabicyclo[3.2.1]octan-6-yl hydrogen sulfate]",more active than Avibactam
17,"N=C(N)NCC(O)Cc1nnc([C@@H]2CC[C@@H]3CN2C(=O)N3OS(=O)(=O)O)o1 (stereo partly drawn) [Compound 730, (2S,5R)-2-(5-(3-guanidino-2-hydroxypropyl)-1,3,4-oxadiazol-2-yl)-7-oxo-1,6-diazabicyclo[3.2.1]octan-6-yl hydrogen sulfate]",more active than Avibactam
18,"O=C1N2C[C@@H](CC[C@H]2c2nnc(CNC3CNC3)o2)N1OS(=O)(=O)O [Compound 726, (2S,5R)-2-(5-((azetidin-3-ylamino)methyl)-1,3,4-oxadiazol-2-yl)-7-oxo-1,6-diazabicyclo[3.2.1]octan-6-yl hydrogen sulfate]",more active than Avibactam
19,"O=C1N2C[C@@H](CC[C@H]2c2nnc(CCNC3CNC3)o2)N1OS(=O)(=O)O [Compound 745, (2S,5R)-2-(5-(2-(azetidin-3-ylamino)ethyl)-1,3,4-oxadiazol-2-yl)-7-oxo-1,6-diazabicyclo[3.2.1]octan-6-yl hydrogen sulfate]",more active than Avibactam
20,"N[C@H]1C[C@H](Cc2nnc([C@@H]3CC[C@@H]4CN3C(=O)N4OS(=O)(=O)O)o2)C1 [Compound 751, (2S,5R)-2-(5-(((1r,3S)-3-aminocyclobutyl)methyl)-1,3,4-oxadiazol-2-yl)-7-oxo-1,6-diazabicyclo[3.2.1]octan-6-yl hydrogen sulfate]",more active than Avibactam

# Source: US8933232B2, “1,3,4-oxadiazole and 1,3,4-thiadiazole beta-lactamase inhibitors” (priority 2012, dated 2015)
